In the NIST ThermoML archive (doi:10.1021/je100888h):

Key:
[1] = xn = mol fraction of the nth substance listed; details: 101 kPa, Liquid
[2] = 101 kPa, Liquid

Oc1ccccc1 [phenol] + O
[1], 313.15 K
Details	mass density [kg/m3]
x1 = 0.3794	1038.84
x1 = 0.4653	1042.74
x1 = 0.6176	1048.12
x1 = 0.7052	1050.69
x1 = 0.8247	1054.06
x1 = 0.9099	1056.28

Cc1ccccc1O [2-methylphenol]
Details	mass density [kg/m3]
[2], 303.15 K	1036.94

Cc1ccc(O)cc1 [4-methylphenol] + Cc1ccccc1
[1], 303.15 K
Details	mass density [kg/m3]
x2 = 0.0588	1016.31
x2 = 0.1156	1007.12
x2 = 0.1715	997.89
x2 = 0.2813	979.91
x2 = 0.3882	962.16
x2 = 0.4914	944.32
x2 = 0.5885	929.7
x2 = 0.6906	912.26
x2 = 0.775	897.37
x2 = 0.8337	887.52
x2 = 0.886	877.87
x2 = 0.962	864.24

CCCCCCCC [octane]
Details	mass density [kg/m3]
[2], 303.15 K	694.52

Cc1cccc(O)c1 [3-methylphenol]
Details	mass density [kg/m3]
[2], 303.15 K	1025.95

Cc1ccccc1O [2-methylphenol] + O
[1], 303.15 K
Details	mass density [kg/m3]
x1 = 0.5953	1033.22
x1 = 0.675	1034.33
x1 = 0.8012	1035.55
x1 = 0.8184	1035.9
x1 = 0.8443	1036.16
x1 = 0.8903	1036.47
x1 = 0.8909	1036.26
x1 = 0.9409	1036.95

Cc1cccc(O)c1 [3-methylphenol] + O
[1], 303.15 K
Details	mass density [kg/m3]
x1 = 0.547	1020.94
x1 = 0.5754	1021.37
x1 = 0.6312	1022.09
x1 = 0.6558	1022.4
x1 = 0.704	1022.95
x1 = 0.7933	1023.97
x1 = 0.7997	1024.04
x1 = 0.8215	1024.36
x1 = 0.845	1024.52
x1 = 0.8635	1024.3
x1 = 0.8759	1024.67
x1 = 0.8839	1024.94
x1 = 0.9231	1025.3
x1 = 0.9426	1025.49
x1 = 0.9703	1025.78

Cc1ccccc1 [toluene]
[2]
Details	mass density [kg/m3]
303.15 K	857.47
313.15 K	848.07

Oc1ccccc1 [phenol] + Cc1ccccc1
[1], 313.15 K
Details	mass density [kg/m3]
x2 = 0.0999	1033.8
x2 = 0.1576	1021.66
x2 = 0.2581	998.46
x2 = 0.3492	978.14
x2 = 0.4363	959.22
x2 = 0.5438	936.46
x2 = 0.6351	917.72
x2 = 0.7288	898.99
x2 = 0.8334	878.75
x2 = 0.9015	865.97

Cc1ccc(O)cc1 [4-methylphenol]
Details	mass density [kg/m3]
[2], 303.15 K	1025.9

Cc1ccccc1O [2-methylphenol] + Cc1ccccc1
[1], 303.15 K
Details	mass density [kg/m3]
x2 = 0.0529	1027.55
x2 = 0.0849	1021.91
x2 = 0.1409	1011.86
x2 = 0.203	1000.75
x2 = 0.2749	987.89
x2 = 0.341	975.95
x2 = 0.4343	959.13
x2 = 0.5187	943.88
x2 = 0.6073	927.88
x2 = 0.6873	913.43
x2 = 0.7547	901.26
x2 = 0.7852	895.73
x2 = 0.8381	886.24
x2 = 0.8481	884.43
x2 = 0.9068	873.9
x2 = 0.9346	869.01
x2 = 0.9737	862.08

Cc1cccc(O)c1 [3-methylphenol] + Cc1ccccc1
[1], 303.15 K
Details	mass density [kg/m3]
x2 = 0.0563	1016.89
x2 = 0.0853	1012.17
x2 = 0.1619	999.57
x2 = 0.2521	984.6
x2 = 0.3053	975.73
x2 = 0.3799	963.22
x2 = 0.4494	951.45
x2 = 0.5205	939.49
x2 = 0.7198	905.42
x2 = 0.8129	889.49
x2 = 0.8723	879.32
x2 = 0.9534	865.4

Oc1ccccc1 [phenol]
Details	mass density [kg/m3]
[2], 313.15 K	1058.3

Cc1ccc(O)cc1 [4-methylphenol] + O
[1], 303.15 K
Details	mass density [kg/m3]
x1 = 0.548	1020.42
x1 = 0.6243	1021.77
x1 = 0.6758	1022.35
x1 = 0.74	1023.33
x1 = 0.7976	1023.92
x1 = 0.8897	1025.1

Cc1cccc(O)c1 [3-methylphenol] + CCCCCCCC
[1], 303.15 K
Details	mass density [kg/m3]
x2 = 0.1197	970.59
x2 = 0.2473	916.86
x2 = 0.3868	864.19
x2 = 0.5012	825.55
x2 = 0.6387	783.91
x2 = 0.7818	745.29
x2 = 0.8773	721.91

Cc1ccccc1O [2-methylphenol] + CCCCCCCC
[1], 303.15 K
Details	mass density [kg/m3]
x2 = 0.0779	998.31
x2 = 0.1634	958.43
x2 = 0.2569	918.23
x2 = 0.299	901.26
x2 = 0.36	877.71
x2 = 0.4277	853.18
x2 = 0.4797	835.08
x2 = 0.5787	803.61
x2 = 0.6607	779.19
x2 = 0.7664	750.13
x2 = 0.8032	740.51
x2 = 0.9143	713.35
